Measured values taken from the PolyMetriX glass transition set.
± gives the standard deviation of the reports.

| Compound | glass transition temperature [°C] |
| --- | --- |
| *c1ccc2c(c1)C(CCCCCCCC)(CCCCCCCC)c1cc(-c3ccc(-c4ccc(-c5ccc(*)s5)c5cc(-c6ccccc6)c(-c6ccccc6)nc45)s3)ccc1-2 (repeat unit) | 142.00 |
| *C=Cc1cc(OC)c(*)cc1OCCC(C)CCCC(C)C (repeat unit) | 50.00 |
| *C=Cc1cc(OC)c(*)cc1OCC(CC)CCCC (repeat unit) | 66.00 |
| *c1ccc(-c2ccc(OCCCC)c(-c3cc(*)ccc3OCCCC)c2)cc1 (repeat unit) | 164.00 |

Remark: another data set of the same source

| Compound | glass transition temperature [°C] |
| --- | --- |
| *c1ccc2c(c1)C(=O)N(c1ccc(-c3ccc(N4C(=O)c5ccc(C(*)(C(F)(F)F)C(F)(F)F)cc5C4=O)cc3-c3ccc(-c4ccccc4)cc3)c(-c3ccc(-c4ccccc4)cc3)c1)C2=O (repeat unit) | 285.00 |
| *Oc1cccc(C(=O)c2ccc(Oc3ccc4c(c3)C(=O)N(c3cccc(N5C(=O)c6ccc(*)cc6C5=O)c3)C4=O)cc2)c1 (repeat unit) | 239.00 |
| *Oc1ccc2ccccc2c1-c1c(Oc2ccc3c(c2)C(=O)N(c2ccc(Oc4ccc(N5C(=O)c6ccc(*)cc6C5=O)cc4)cc2)C3=O)ccc2ccccc12 (repeat unit) | 274.00 |
| *c1ccc2c(c1)C(=O)N(c1ccc(Oc3c(F)c(F)c(Oc4ccc(N5C(=O)c6ccc(C(*)(C(F)(F)F)C(F)(F)F)cc6C5=O)cc4)c(F)c3F)cc1)C2=O (repeat unit) | 243.80 |
| *Oc1ccc2c(c1)C(=O)N(c1ccc(Oc3ccc(Oc4cccc(N5C(=O)c6cccc(*)c6C5=O)c4)cc3)cc1)C2=O (repeat unit) | 249.00 ± 5.7 |
| *C(=O)c1ccc2c(c1)C(=O)N(c1c(C)cc(CC)c(N3C(=O)c4ccc(*)cc4C3=O)c1CC)C2=O (repeat unit) | 385.00 |
| *C(=O)c1ccc2c(c1)C(=O)N(c1ccccc1Oc1ccccc1N1C(=O)c3ccc(*)cc3C1=O)C2=O (repeat unit) | 289.00 |
| *Oc1cccc2c1C(=O)N(c1ccc(Oc3ccc(Oc4cccc(N5C(=O)c6cccc(*)c6C5=O)c4)cc3)cc1)C2=O (repeat unit) | 263.00 |
| *Sc1cccc2c1C(=O)N(c1ccc(Oc3ccc(N4C(=O)c5cccc(*)c5C4=O)cc3)cc1)C2=O (repeat unit) | 287.00 ± 8.5 |
| *C(=O)c1ccc2c(c1)C(=O)N(c1cc(N3C(=O)c4ccc(*)cc4C3=O)ccc1OCC(F)(F)C(F)(F)C(F)(F)C(F)(F)C(F)(F)C(F)(F)C(F)(F)F)C2=O (repeat unit) | 223.00 |
| *c1ccc2c(c1)C(=O)N(c1c(F)c(F)c(-c3c(F)c(F)c(N4C(=O)c5ccc(C(*)(C(F)(F)F)C(F)(F)F)cc5C4=O)c(F)c3F)c(F)c1F)C2=O (repeat unit) | 374.50 ± 15 |
| *Oc1ccc(C(c2ccc(Oc3cccc4c3C(=O)N(CCCCCCCCN3C(=O)c5cccc(*)c5C3=O)C4=O)cc2)(C(F)(F)F)C(F)(F)F)cc1 (repeat unit) | 135.00 |
| *Oc1cccc(Oc2ccc(Oc3cccc4c3C(=O)N(c3ccc(Oc5ccc(N6C(=O)c7cccc(*)c7C6=O)cc5)cc3)C4=O)cc2)c1 (repeat unit) | 239.00 |
| *C(=O)c1ccc2c(c1)C(=O)N(c1cccc(Oc3ccc(P(=O)(c4ccccc4)c4ccc(Oc5ccc(N6C(=O)c7ccc(*)cc7C6=O)cc5)cc4)cc3)c1)C2=O (repeat unit) | 232.00 |
| *Oc1cccc(Sc2ccc(Oc3ccc4c(c3)C(=O)N(c3ccc(Oc5cccc(Oc6ccc(N7C(=O)c8ccc(*)cc8C7=O)cc6)c5)cc3)C4=O)cc2)c1 (repeat unit) | 219.00 |
| *C1=C(Cl)C(=O)N(c2cccc(N3C(=O)C(Cl)=C(Oc4ccc(C(C)(C)c5ccc(*)cc5)cc4)C3=O)c2)C1=O (repeat unit) | 163.00 |
| *CC(N1C(=O)c2ccccc2C1=O)n1c(=O)c2cc3c(=O)n(*)c(=O)c3cc2c1=O (repeat unit) | 190.00 |
| *c1ccc2c(c1)C(=O)N(c1cc(C(F)(F)F)c(N3C(=O)c4ccc(C(*)(C(F)(F)F)C(F)(F)F)cc4C3=O)cc1C(F)(F)F)C2=O (repeat unit) | 365.00 |
| *c1ccc2c(c1)C(=O)N(c1ccc(OCC(F)(F)C(F)(F)C(F)(F)C(F)(F)C(F)(F)C(F)(F)F)c(N3C(=O)c4ccc(C(*)(C(F)(F)F)C(F)(F)F)cc4C3=O)c1)C2=O (repeat unit) | 228.00 |
| *Sc1ccc2c(c1)C(=O)N(c1cc(Cc3ccc(N4C(=O)c5cccc(*)c5C4=O)c(C)c3)ccc1C)C2=O (repeat unit) | 257.50 ± 11 |
| *C(=O)Nc1ccc2ccccc2c1-c1c(NC(=O)c2ccc3c(c2)C(=O)N(c2ccc(Cc4ccc(N5C(=O)c6ccc(*)cc6C5=O)cc4)cc2)C3=O)ccc2ccccc12 (repeat unit) | 285.40 |

| Compound | glass transition temperature [°C] |
| --- | --- |
| *c1cccc(C(c2cccc(-n3c(=O)c4cc5c(=O)n(*)c(=O)c5cc4c3=O)c2)(C(F)(F)F)C(F)(F)F)c1 (repeat unit) | 296.00 |
| *Oc1cccc(S(=O)(=O)c2ccc(Oc3cccc4c3C(=O)N(c3ccc(Oc5cccc(Oc6ccc(N7C(=O)c8cccc(*)c8C7=O)cc6)c5)cc3)C4=O)cc2)c1 (repeat unit) | 216.00 |
| *Oc1c(F)c(F)c(Oc2c(F)c(F)c3c(c2F)C(=O)N(c2ccc(-c4ccc(N5C(=O)c6c(F)c(*)c(F)c(F)c6C5=O)cc4C(F)(F)F)c(C(F)(F)F)c2)C3=O)c(F)c1F (repeat unit) | 312.00 |
| *C(=O)c1ccc2c(c1)C(=O)N(c1cc(N3C(=O)c4ccc(*)cc4C3=O)ccc1OCC(F)(F)C(F)(F)C(F)(F)F)C2=O (repeat unit) | 262.00 |
| *C(=O)c1ccc2c(c1)C(=O)N(c1cc(N3C(=O)c4ccc(*)cc4C3=O)ccc1OCC(F)(F)C(F)(F)C(F)(F)C(F)(F)C(F)(F)C(F)(F)F)C2=O (repeat unit) | 229.00 |
| *Sc1ccc2c(c1)C(=O)N(c1ccc(N3C(=O)c4cccc(*)c4C3=O)cc1)C2=O (repeat unit) | 319.50 ± 0.7 |
| *c1c(C)c(C)c(N2C(=O)c3cc4c(cc3C2=O)C(c2ccccc2)(C(F)(F)F)c2cc3c(cc2O4)C(=O)N(*)C3=O)c(C)c1C (repeat unit) | 394.00 |
| *c1ccc2c(c1)C(=O)N(c1c(F)c(F)c(N3C(=O)c4ccc(C(*)(C(F)(F)F)C(F)(F)F)cc4C3=O)c(F)c1F)C2=O (repeat unit) | 375.50 ± 6.4 |
| *c1ccc2c(c1)C(=O)N(c1ccc(-c3ccc(N4C(=O)c5ccc(C(*)(C(F)(F)F)C(F)(F)F)cc5C4=O)cc3-c3ccc(C(F)(F)F)cc3)c(-c3ccc(C(F)(F)F)cc3)c1)C2=O (repeat unit) | 283.00 |
| *c1ccc2c(c1)C(=O)N(c1cc(N3C(=O)c4ccc([Si](*)(C)C)cc4C3=O)cc(C(F)(F)F)c1)C2=O (repeat unit) | 263.00 |
| *Oc1ccc2c(c1)C(=O)N(c1ccc(P(=O)(c3ccccc3)c3ccc(N4C(=O)c5ccc(*)cc5C4=O)cc3)cc1)C2=O (repeat unit) | 311.00 |
| *c1ccc2c(c1)C(=O)N(c1ccc(P(=O)(c3ccccc3)c3ccc(N4C(=O)c5ccc(C(*)(C(F)(F)F)C(F)(F)F)cc5C4=O)cc3)cc1)C2=O (repeat unit) | 345.00 |
| *c1cccc(Oc2ccc(P(=O)(c3ccccc3)c3ccc(Oc4ccc(-n5c(=O)c6cc7c(=O)n(*)c(=O)c7cc6c5=O)cc4)cc3)cc2)c1 (repeat unit) | 254.00 |
| *Oc1ccc2c(c1)C(=O)N(c1cc(N3C(=O)c4ccc(*)cc4C3=O)cc(C(F)(F)F)c1)C2=O (repeat unit) | 274.00 |
| *c1ccc2c(c1)C(=O)N(c1cccc(Oc3cccc(N4C(=O)c5cccc(*)c5C4=O)c3)c1)C2=O (repeat unit) | 245.00 ± 1.5 |
| *Sc1cccc2c1C(=O)N(c1ccc(N3C(=O)c4cccc(*)c4C3=O)cc1)C2=O (repeat unit) | 330.00 |
| *Oc1ccc(C(c2ccc(Oc3ccc4c(c3)C(=O)N(c3ccc(Cc5ccc(N6C(=O)c7ccc(*)cc7C6=O)cc5)cc3)C4=O)cc2)(C(F)(F)F)C(F)(F)F)cc1 (repeat unit) | 227.00 ± 4.2 |
| *Oc1ccc(Oc2ccc3c(c2)C(=O)N(c2ccc(Oc4ccc5ccccc5c4-c4c(Oc5ccc(N6C(=O)c7ccc(*)cc7C6=O)cc5C(F)(F)F)ccc5ccccc45)c(C(F)(F)F)c2)C3=O)cc1 (repeat unit) | 256.00 |
| *c1ccc(Cc2ccc(-n3c(=O)c4ccc5c(=O)n(*)c(=O)c5c4c3=O)c(C)c2)cc1C (repeat unit) | 354.00 |
| *c1ccc2c(c1)C(=O)N(c1ccc(-c3ccc(N4C(=O)c5ccc(C(*)(C(F)(F)F)C(F)(F)F)cc5C4=O)cc3Br)c(Br)c1)C2=O (repeat unit) | 329.00 |
| *C(=O)c1ccc2c(c1)C(=O)N(c1ccc(C(=O)c3ccccc3N3C(=O)c4ccc(*)cc4C3=O)cc1)C2=O (repeat unit) | 289.00 |
